Source: US12064508B2, “Compositions and methods for nasal administration of drugs to brain and for systemic effect” (priority 2017, dated 2024)

System: nasal cavity
Test: Local safety: histopathology of the nasal cavity
Conditions: intranasal 15 μl/rat twice a day for one week
Description: The effect of phospholipid magnesome on the nasal cavity was evaluated in rats.
The animals received the treatments twice a day for one week. […] Sections of the nasal cavity were cut serially at 7 μm thickness and stained with Hematoxylin & Eosin. […] Local toxicity was assessed by evaluating the histopathological alterations in different regions of the nasal cavity (cartilage and turbinate bone, lamina propria and submucosa, mucosal epithelium and lumen).

CCCCCCCCCCCCOS(=O)(=O)[O-].[Na+] [SLS, Sodium lauryl sulfate]
histopathological findings in the nasal cavity: minimal proteinaceous material in the lumen and focal aggregations of neutrophils
